Patent US11959100B2, “Method for culture of cells” (Kyoto University, priority 2017, dated 2024)

Legend:
[1] = system: neural crest cells (NCCs); assay: Expansion (suspension) culture of neural crest cells: total cell number / rate of cell proliferation; format: cell-based, Human; details: for influence of concentration on change in total cell number: bFGF and EGF 20 or 40 ng/ml, CHIR99021 1, 2, 3, 3.5, 4, 4.5 or 5 μM
Excerpt: (§1) Human iPSCs were allowed to differentiate into neural crest cells (NCCs) according to the method described in Non Patent Literature 1. The iPSCs used were SOX10-Nano-Lantern Reporter Human iPSCs (201B7 line) described in Non Patent Literature 4. This cell line has an insert of a nucleotide sequence encoding a fluorescent protein Nano-Lantern (Saito K. et al., “Luminescent proteins for high-speed single-cell and whole-body imaging.” Nat. Commun., 2012; 3: 1262) downstream of SOX10 gene, a marker gene of NCCs, and expresses a fusion protein of SOX10 and Nano-Lantern under the control of SOX10 promoter.
(§2) iPSCs were inoculated to a Matrigel-coated dish, adherent-cultured for 4 days in TeSR1 medium, and then adherent-cultured for 10 days in CDM medium containing 10 μM SB431542 (TGFβ inhibitor) and 1 μM CHIR99021 (GSK3β inhibitor), and thereby allowed to differentiate into NCCs.
NCCs were detached from the dish and suspension-cultured in CDM medium containing 10 μM SB431542, 3 μM CHIR99021, 40 ng/ml bFGF and 40 ng/ml EGF. The cells were passaged every 7 days.
(§3) Change in total cell number after the start of expansion culture is shown in FIG. 1, and change in the percentage of SOX10 expression-positive cells is shown in FIG. 2. In order to measure the percentage of SOX10 expression-positive cells, an aggregated cell mass was dissociated using StemPro Accutase Cell Dissociation Reagent (Invitrogen Corp.) to prepare single-cell suspensions. The single-cell suspensions in FACS buffer (2% BSA HBSS) supplemented with 1 μg/mL PI (propidium iodide, Wako Pure Chemical Industries, Ltd.) were filtered through a tube with 35 μm nylon mesh (BD Falcon) and then analyzed using a flow cytometer (FACS Aria, BD Biosciences) to measure the ratio of GFP-positive cells in live cells (PI-negative cells). […] The expressed SOX10 serves as a marker of NCCs having multipotency.

GSK3β = GSK3β (Homo sapiens, UniProt P49841); assay: GSK3β inhibitory activity, CellSensor LEF/TCF-bla HCT-116 reporter assay; format: cell-based
Sequence of GSK3β (P49841 whole entry): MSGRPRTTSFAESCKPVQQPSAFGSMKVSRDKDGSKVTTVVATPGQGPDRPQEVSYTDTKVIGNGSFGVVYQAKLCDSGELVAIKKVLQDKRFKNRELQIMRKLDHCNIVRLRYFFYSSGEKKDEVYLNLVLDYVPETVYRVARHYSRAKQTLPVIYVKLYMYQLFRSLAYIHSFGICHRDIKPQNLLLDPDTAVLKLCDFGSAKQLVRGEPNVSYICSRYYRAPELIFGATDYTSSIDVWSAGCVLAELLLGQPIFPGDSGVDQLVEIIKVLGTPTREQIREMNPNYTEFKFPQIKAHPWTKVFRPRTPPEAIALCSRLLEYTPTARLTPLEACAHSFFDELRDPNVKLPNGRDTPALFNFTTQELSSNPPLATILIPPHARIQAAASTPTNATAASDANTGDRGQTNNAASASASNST
Excerpt: In the Wnt/β-catenin pathway, GSK3β functions to phosphorylate β-catenin in the absence of Wnt-ligand. The phosphorylated β-catenin is ubiquitinated and degraded within the proteasome. Therefore, gene expression downstream of the Wnt-β-catenin pathway is suppressed. If GSK3β in this pathway is inhibited, β-catenin is translocated into the nucleus, without being degraded, to induce gene expression downstream of the Wnt-β-catenin pathway together with other transcription factors such as T-cell factor (TCF)/lymphoid enhancer factor (LEF). CellSensor LEF/TCF-bla HCT-116 Cell Line (Thermo Fisher Scientific Inc., K1676) stably incorporates therein LEF/TCF and incorporates a reporter gene (beta-lactamase reporter gene) so as to express the reporter gene under the control of LEF/TCF. The expression of the reporter gene in this cell line in the absence of the Wnt-ligand serves as an index for the inhibition of the function (β-catenin phosphorylation function) of GSK3β. The GSK3β inhibitory activity of the GSK3β inhibitor was measured by assay using this cell line.
The assay was conducted in accordance with the protocol of Invitrogen Corp. (CellSensor® LEF/TCF-bla HCT 116 Cell-based Assay Protocol).
Specifically, LEF/TCF-bla HCT-116 Cells were suspended in an assay medium (OPTI-MEM, 0.5% dialyzed FBS, 0.1 mM NEAA, 1 mM sodium pyruvate, 100 U/mL/100 μg/mL Pen/Strep) (312,500 cells/mL). The cell suspension was inoculated to each well of an assay plate (10,000 cells/well), and cultured for 16 to 24 hours.
A beta-lactamase substrate solution (LiveBLAzer-FRET B/G (CCF4-AM) Substrate Mixture) was added to each well (8 μL/well) and incubated for 2 hours. A fluorescence value was measured in a fluorescence plate reader. The measurement was performed in two wells per each concentration condition.

neural crest cells [2] = details: 1 μM CHIR99021; culture for 7 days; suspension culture; cited from earlier work
[3] = system: neural crest cells (NCCs); assay: Expansion (suspension) culture of neural crest cells: percentage of SOX10 expression-positive cells by flow cytometry; format: cell-based, Human; details: for influence of concentration on change in the percentage of SOX10 expression-positive cells: bFGF and EGF 20 or 40 ng/ml
Excerpt: as §1, §2
[…] The cells were passaged every 7 days.
as §3

neural crest cells [4] = details: bFGF 0 pg/ml to 10 ng/ml; adherent culture; cited from earlier work
[5] = bFGF 10, 12.5, 15.0 or 17.5 ng/ml, CHIR99021 1.5 μM

Cc1c[nH]c(-c2cnc(NCCNc3ccc(C#N)cn3)nc2-c2ccc(Cl)cc2Cl)n1 [CHIR99021, 6-[[2-[[4-(2,4-dichlorophenyl)-5-(4-methyl-1H-imidazol-2-yl)-2-pyrimidinyl]amino]ethyl]amino]nicotinonitrile]
change in total cell number after the start of expansion culture ([1]; 3 μM CHIR99021, 10 μM SB431542, 40 ng/ml bFGF, 40 ng/ml EGF, whole culture period): increased over the whole period | influence of concentration on change in total cell number [1]: no influence | Fluorescence value Well 1 (GSK3β; 0.316 nM): 6 | Fluorescence value Well 2 (GSK3β; 0.316 nM): 0 | Fluorescence value Well 1 (GSK3β; 1.00 nM): 0 | Fluorescence value Well 2 (GSK3β; 1.00 nM): 0 | Fluorescence value Well 1 (GSK3β; 3.16 nM): 0 | Fluorescence value Well 2 (GSK3β; 3.16 nM): 14 | Fluorescence value Well 1 (GSK3β; 10.0 nM): 12 | Fluorescence value Well 2 (GSK3β; 10.0 nM): 23 | Fluorescence value Well 1 (GSK3β; 31.6 nM): 21 | Fluorescence value Well 2 (GSK3β; 31.6 nM): 45 | Fluorescence value Well 1 (GSK3β; 100 nM): 75 | Fluorescence value Well 2 (GSK3β; 100 nM): 60 | Fluorescence value Well 1 (GSK3β; 316 nM): 101 | Fluorescence value Well 2 (GSK3β; 316 nM): 96 | GSK3β inhibitory activity in terms of the fluorescence value (mean from the two wells) (GSK3β; 1 μM): 113.5 | Fluorescence value Well 1 (GSK3β; 1000 nM): 114 | Fluorescence value Well 2 (GSK3β; 1000 nM): 113 | Fluorescence value Well 1 (GSK3β; 3160 nM): 99 | Fluorescence value Well 2 (GSK3β; 3160 nM): 136 | Fluorescence value Well 1 (GSK3β; 10000 nM): 88 | Fluorescence value Well 2 (GSK3β; 10000 nM): 73 | presence of Sox10-positive cells (neural crest cells [2]): presence of Sox10-positive cells was confirmed | percentage of SOX10 expression-positive cells ([3]; 3 μM CHIR99021, 10 μM SB431542, 40 ng/ml bFGF, 40 ng/ml EGF, on 121 days of culture): high percentage of SOX10 expression-positive cells was confirmed | time of culture at which the number of cells that maintained multipotency decreased ([3]; CHIR99021 1 μM): 21 days | percentage of SOX10 expression-positive cells ([3]; CHIR99021 1 μM, on 21 days of culture): decrease in the percentage of SOX10 expression-positive cells was observed | percentage of SOX10 expression-positive cells ([3]; CHIR99021 1 μM, on 63 days of culture): ≤ 25% | period over which multipotency was maintained ([3]; CHIR99021 2 μM): ≥ 63 days | percentage of SOX10 expression-positive cells ([3]; CHIR99021 2 μM, on 63 days of culture): ≥ 55% | time of culture at which the number of cells that maintained multipotency decreased ([3]; CHIR99021 5 μM): 42 days | percentage of SOX10 expression-positive cells ([3]; CHIR99021 5 μM, on 63 days of culture): ≤ 5% | percentage of SOX10 expression-positive cells ([3]; CHIR99021 5 μM, up to 42 days of culture): ≥ 55% | period of culture and proliferation of neural crest cells that maintained multipotency ([3]; CHIR99021 3 to 4.5 μM): ≥ 112 days | percentage of SOX10 expression-positive cells ([3]; CHIR99021 3 to 4.5 μM, on 121 days of culture): ≥ 90%

EGF: epidermal growth factor, medium additive
influence of concentration on change in total cell number [1]: no influence | influence of concentration on change in the percentage of SOX10 expression-positive cells [3]: no influence

Cn1cc(C2=C(c3cccc(N)c3)C(=O)NC2=O)c2ccccc21 [CP21R7, 3-(3-amino-phenyl)-4-(1-methyl-1H-indol-3-yl)-pyrrole-2,5-dione]
time of culture at which the number of cells that maintained multipotency decreased ([3]; CP21R7 0.1 μM): 21 days | percentage of SOX10 expression-positive cells ([3]; CP21R7 0.1 μM, on 21 days of culture): started to decrease | percentage of SOX10 expression-positive cells ([3]; CP21R7 0.5 or 1 μM, on 84 days of culture): high percentage of SOX10 expression-positive cells was confirmed | period of culture and proliferation of neural crest cells that maintained multipotency ([3]; CP21R7 0.5 to 1 μM): ≥ 84 days

bFGF: basic fibroblast growth factor (bFGF (also referred to as FGF2)), medium additive
behavior of change in total cell number [1, 5]: substantially the same | influence of concentration on change in total cell number [1]: no influence | number and ratio of neural crest cells in a cultured cell population (neural crest cells [4]): decreased in a concentration-dependent manner | influence of bFGF concentration on the percentage of SOX10 expression positivity [3, 5]: no influence | influence of concentration on change in the percentage of SOX10 expression-positive cells [3]: no influence
